In brackets after ≈: the same amount, converted by molar mass.
Experiments:
Experiment in all cases: in vitro antibacterial MIC, agar plate dilution
Assay type in all cases: cell-based
[1] = tested on: Enterobacter aerogenes VGH 84-36; conditions: Klebsiella aerogenes, VGH8436, 18 hours, 35° C., read-out: MIC
In short: (§1)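 Agar plate dilution on Mueller-Hinton agar, inoculum about 10^4 CFU per spot applied with a Steers replicator. MIC (mcg/ml) is the lowest compound concentration preventing visible growth after 18 h at 35 °C.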

[2] = tested on: Enterobacter cloacae VGH 84-37; conditions: Enterobacter cloacae, VGH8437, 18 h, 35° C., read-out: MIC
In short: as §1

[3] = tested on: Enterobacter cloacae VGH 84-39; conditions: Enterobacter cloacae, VGH8439, 18 h, 35° C., read-out: MIC
In short: as §1

[4] = tested on: Escherichia coli CMC 84-16; conditions: Escherichia coli, CMC8416, 18 h, 35° C., read-out: MIC
In short: as §1

[5] = tested on: Escherichia coli NAR 311; conditions: NAR311, 18 hours, 35° C., read-out: MIC
In short: as §1

[6] = tested on: Escherichia coli PRNT 311; conditions: PRNT311, 18 hours, 35° C., read-out: MIC
In short: as §1

[7] = tested on: Klebsiella oxytoca MOR 84-28; conditions: MOR8428, 18 hours, 35° C.
In short: as §1

[8] = tested on: Klebsiella pneumoniae AD; conditions: Klebsiella pneumoniae, 18 h, 35° C., read-out: MIC
In short: as §1

[9] = tested on: Morganella morganii MOR 84-45; conditions: Morganella morganii, MOR8445, 18 h, 35° C., read-out: MIC
In short: as §1

[10] = tested on: Morganella morganii VGH 84-11; conditions: VGH8411, 18 hours, 35° C., read-out: MIC
In short: as §1

[11] = tested on: Morganella morganii VHG 84-12; conditions: Morganella morganii, VHG8412, 18 h, Morganella morganii VHG 84-12 (VGH 84-12 for Example 131), 35° C., read-out: MIC
In short: as §1

[12] = tested on: Proteus rettgeri CMC 84-41; conditions: Providencia rettgeri, CMC8441, 18 h, 35° C., read-out: MIC
In short: as §1

[13] = tested on: Serratia marcescens F 0-35; conditions: Serratia marcescens, F035, 18 h, 35° C., read-out: MIC
In short: as §1

[14] = tested on: Serratia marcescens IO 83-63; conditions: IO8363, 18 hours, 35° C.
In short: as §1

[15] = tested on: Serratia marcescens MOR 84-41; conditions: Serratia marcescens, MOR8441, 18 h, 35° C., read-out: MIC
In short: as §1

[16] = tested on: Staphylococcus aureus CMC 83-127; conditions: Staphylococcus aureus, CMC83127, 18 h, 35° C., read-out: MIC
In short: as §1

[17] = tested on: Staphylococcus aureus VGH 84-46; conditions: Staphylococcus aureus, VGH8446, 18 h, 35° C., read-out: MIC
In short: as §1

[18] = tested on: Staphylococcus epidermidis CMC 83-135; conditions: CMC83135, 18 hours, 35° C., read-out: MIC
In short: as §1

[19] = tested on: Staphylococcus epidermidis IO 83-58; conditions: IO8358, 18 hours, 35° C., read-out: MIC
In short: as §1

[20] = tested on: Staphylococcus epidermidis VGH 84-40; conditions: VGH8440, 18 hours, 35° C., read-out: MIC
In short: as §1

[21] = tested on: Streptococcus faecalis ATTC 29212; conditions: Enterococcus faecalis, ATTC29212, 18 hours, 35° C., read-out: MIC
In short: as §1

[22] = tested on: Streptococcus faecalis VGH 84-69; conditions: Enterococcus faecalis, VGH8469, 18 h, 35° C., read-out: MIC
In short: as §1

[23] = tested on: Escherichia coli LL 311; conditions: Escherichia coli, LL311, 18 h, 35° C., read-out: MIC
In short: as §1

SMILES	MIC [3]	MIC [9]	MIC [11]	MIC [12]	MIC [14]	MIC [15]	MIC [22]	MIC [23]	further results
O=C(O)c1cn(C2CC2)c2cc(N3CCNC(c4ccoc4)C3)c(F)cc2c1=O (stereo not drawn) [Example 92]	0.12 µg/mL (≈ 0.302 µM)	0.12 µg/mL (≈ 0.302 µM)	0.25 µg/mL (≈ 0.629 µM)	0.12 µg/mL (≈ 0.302 µM)	1 µg/mL (≈ 2.52 µM)	0.25 µg/mL (≈ 0.629 µM)	1 µg/mL (≈ 2.52 µM)	0.03 µg/mL (≈ 0.0755 µM)	–
CCn1cc(C(=O)O)c(=O)c2cc(F)c(N3CCNC(c4ccoc4)C3)cc21 (stereo not drawn) [Example 94, 1-Ethyl-6-fluoro-1,4-dihydro-4-oxo-7-[3-(3-furanyl)-1-piperazinyl]-3-quinolinecarboxylic acid]	0.5 µg/mL (≈ 1.3 µM)	0.12 µg/mL (≈ 0.311 µM)	1 µg/mL (≈ 2.59 µM)	0.25 µg/mL (≈ 0.649 µM)	1 µg/mL (≈ 2.59 µM)	0.5 µg/mL (≈ 1.3 µM)	2 µg/mL (≈ 5.19 µM)	0.12 µg/mL (≈ 0.311 µM)	–
CCn1cc(C(=O)O)c(=O)c2cc(F)c(N3CCN(C)C(c4ccn(C)n4)C3)cc21 (stereo not drawn) [Example 109, 1-Ethyl-6-fluoro-1,4-dihydro-7-[4-methyl-3-(1-methyl-1H-pyrazol-3-yl) -1-piperazinyl]-4-oxo-3-quinolinecarboxylic acid]	> 16 µg/mL	> 16 µg/mL	> 16 µg/mL	32 µg/mL (≈ 77.4 µM)	> 16 µg/mL	> 16 µg/mL	> 16 µg/mL	8 µg/mL (≈ 19.3 µM)	–

Second part, led by results:

MIC [3]	MIC [9]	MIC [11]	MIC [12]	MIC [14]	MIC [15]	MIC [22]	MIC [23]	SMILES	further results
0.12 µg/mL (≈ 0.302 µM)	0.12 µg/mL (≈ 0.302 µM)	0.5 µg/mL (≈ 1.26 µM)	0.06 µg/mL (≈ 0.151 µM)	1 µg/mL (≈ 2.52 µM)	0.5 µg/mL (≈ 1.26 µM)	0.5 µg/mL (≈ 1.26 µM)	–	O=C(O)c1cn(C2CC2)c2cc(N3CCNC(c4ccco4)C3)c(F)cc2c1=O (stereo not drawn) [Example 62, 1-Cyclopropyl-6-fluoro-7-[3-(2-furanvl)-1-piperazinyl]-1,4-dihydro-4-oxo-3-quinolinecarboxylic acid]	MIC [1]: 0.12 µg/mL (≈ 0.302 µM); MIC [2]: 0.03 µg/mL (≈ 0.0755 µM); MIC [4]: 0.03 µg/mL (≈ 0.0755 µM); MIC [5]: 0.5 µg/mL (≈ 1.26 µM); MIC [6]: 0.06 µg/mL (≈ 0.151 µM); MIC [7]: 0.06 µg/mL (≈ 0.151 µM); MIC [8]: 0.12 µg/mL (≈ 0.302 µM); MIC [10]: 0.06 µg/mL (≈ 0.151 µM); MIC [13]: 0.06 µg/mL (≈ 0.151 µM); MIC [16]: 0.008 µg/mL (≈ 0.0201 µM); MIC [17]: 0.015 µg/mL (≈ 0.0377 µM); MIC [18]: 0.03 µg/mL (≈ 0.0755 µM); MIC [19]: 0.015 µg/mL (≈ 0.0377 µM); MIC [20]: 0.03 µg/mL (≈ 0.0755 µM); MIC [21]: 0.25 µg/mL (≈ 0.629 µM)
8 µg/mL (≈ 19.3 µM)	8 µg/mL (≈ 19.3 µM)	> 16 µg/mL	4 µg/mL (≈ 9.67 µM)	> 16 µg/mL	> 16 µg/mL	16 µg/mL (≈ 38.7 µM)	2 µg/mL (≈ 4.84 µM)	CCn1cc(C(=O)O)c(=O)c2cc(F)c(N3CCN(C)C(c4ccnn4C)C3)cc21 (stereo not drawn) [Example 110, 1-Ethyl-6-fluoro-1,4-dihydro-7-[4-methyl-3-(1-methyl-1H-pyrazol-5-yl) -1-piperazinyl]-4-oxo-3-quinolinecarboxylic acid]	–

From patent US5210193A, “Piperazine derivatives” (American Cyanamid Company, priority 1990, dated 1993)
